In ChEMBL document CHEMBL1151717, “In vivo active aldosterone synthase inhibitors with improved selectivity: lead optimization providing a series of pyridine substituted 3,4-dihydro-1H-quinolin-2-one derivatives” (J Med Chem, 2008):

Key:
[1] = target: T1, Cytochrome P450 11B1, mitochondrial (Homo sapiens, UniProt P15538)
T1 sequence (P15538 whole entry): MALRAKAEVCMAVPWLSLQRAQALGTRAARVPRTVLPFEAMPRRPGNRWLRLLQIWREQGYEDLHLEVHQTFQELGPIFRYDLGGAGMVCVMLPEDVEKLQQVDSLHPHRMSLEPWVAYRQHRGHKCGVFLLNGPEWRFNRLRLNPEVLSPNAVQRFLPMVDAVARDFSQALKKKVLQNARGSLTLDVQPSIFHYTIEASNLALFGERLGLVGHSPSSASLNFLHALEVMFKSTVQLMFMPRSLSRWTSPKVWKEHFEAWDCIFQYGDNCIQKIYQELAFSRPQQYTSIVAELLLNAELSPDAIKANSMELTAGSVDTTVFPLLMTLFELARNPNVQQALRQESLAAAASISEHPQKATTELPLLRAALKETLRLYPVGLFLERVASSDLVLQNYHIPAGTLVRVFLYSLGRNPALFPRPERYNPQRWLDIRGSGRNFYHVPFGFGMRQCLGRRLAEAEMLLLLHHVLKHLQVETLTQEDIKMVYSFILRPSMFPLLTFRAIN

Cytochrome P450 2D6 = Cytochrome P450 2D6 (Homo sapiens, UniProt P10635); assay: Inhibition of human recombinant CYP2D6 expressed in baculovirus-infected insect microsomes; format: ADME, Microsome
CYP17 = target: T2, CYP17 (Homo sapiens, UniProt P05093); assay: in vitro; settings: human CYP17 expressed in Escherichia coli
T2 sequence (P05093 whole entry): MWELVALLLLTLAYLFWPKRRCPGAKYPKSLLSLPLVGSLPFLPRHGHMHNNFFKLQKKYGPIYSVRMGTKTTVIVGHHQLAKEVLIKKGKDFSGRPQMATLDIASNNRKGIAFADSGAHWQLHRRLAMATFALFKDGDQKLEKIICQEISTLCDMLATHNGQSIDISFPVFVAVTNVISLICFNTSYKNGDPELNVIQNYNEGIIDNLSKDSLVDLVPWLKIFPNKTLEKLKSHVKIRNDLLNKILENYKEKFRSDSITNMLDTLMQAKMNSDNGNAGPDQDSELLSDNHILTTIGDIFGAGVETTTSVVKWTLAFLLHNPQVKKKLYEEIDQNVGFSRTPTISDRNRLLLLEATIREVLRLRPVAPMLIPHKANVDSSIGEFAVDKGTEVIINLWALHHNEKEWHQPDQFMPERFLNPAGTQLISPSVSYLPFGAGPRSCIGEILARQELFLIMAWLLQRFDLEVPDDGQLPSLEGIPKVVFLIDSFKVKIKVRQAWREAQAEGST
Description: Inhibition of human CYP17 expressed in Escherichia coli at 2.5 uM

[2] = target: T3, Cytochrome P450 11B2, mitochondrial (Homo sapiens, UniProt P19099); assay: Inhibition of human CYP11B2 expressed in hamster V79 MZh cells at 500 nM; format: cell-based; settings: V79MZh
T3 sequence (P19099 whole entry): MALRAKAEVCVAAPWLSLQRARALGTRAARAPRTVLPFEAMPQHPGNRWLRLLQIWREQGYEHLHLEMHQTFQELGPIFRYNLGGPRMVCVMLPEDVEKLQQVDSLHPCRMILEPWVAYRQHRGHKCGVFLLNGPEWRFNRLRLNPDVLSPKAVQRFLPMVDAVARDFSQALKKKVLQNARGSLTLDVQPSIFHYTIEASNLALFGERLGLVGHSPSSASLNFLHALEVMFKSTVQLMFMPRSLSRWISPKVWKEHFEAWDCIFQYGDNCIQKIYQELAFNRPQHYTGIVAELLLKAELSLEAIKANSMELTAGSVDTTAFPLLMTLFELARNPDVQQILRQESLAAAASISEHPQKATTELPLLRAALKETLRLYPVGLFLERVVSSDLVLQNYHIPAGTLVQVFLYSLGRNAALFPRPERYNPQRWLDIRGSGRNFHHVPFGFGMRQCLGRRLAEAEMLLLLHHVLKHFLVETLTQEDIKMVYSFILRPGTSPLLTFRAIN

Cytochrome P450 3A4 = Cytochrome P450 3A4 (Homo sapiens, UniProt P08684); assay: Inhibition of human recombinant CYP3A4 expressed in baculovirus-infected insect microsomes; format: ADME, Microsome
Cytochrome P450 1A2 = target: T4, Cytochrome P450 1A2 (Homo sapiens, UniProt P05177)
T4 sequence (P05177 whole entry): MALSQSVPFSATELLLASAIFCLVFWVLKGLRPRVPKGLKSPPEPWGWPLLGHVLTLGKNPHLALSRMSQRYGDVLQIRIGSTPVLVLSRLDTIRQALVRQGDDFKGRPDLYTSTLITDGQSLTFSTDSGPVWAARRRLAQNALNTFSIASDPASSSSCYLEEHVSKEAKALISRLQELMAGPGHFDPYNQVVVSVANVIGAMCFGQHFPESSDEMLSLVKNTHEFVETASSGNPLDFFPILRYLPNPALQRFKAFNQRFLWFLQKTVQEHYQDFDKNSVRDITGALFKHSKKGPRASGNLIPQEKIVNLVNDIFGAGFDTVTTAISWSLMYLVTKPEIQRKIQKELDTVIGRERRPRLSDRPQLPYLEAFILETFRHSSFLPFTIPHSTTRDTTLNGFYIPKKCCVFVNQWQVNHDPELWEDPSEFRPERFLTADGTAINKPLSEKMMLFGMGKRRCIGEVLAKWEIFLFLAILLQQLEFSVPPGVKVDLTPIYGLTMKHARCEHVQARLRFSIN
Description: Inhibition of human recombinant CYP1A2 expressed in baculovirus-infected insect microsomes

Cytochrome P450 2C19 = Cytochrome P450 2C19 (Homo sapiens, UniProt P33261); assay: Inhibition of human recombinant CYP2C19 expressed in baculovirus-infected insect microsomes; format: ADME, Microsome; settings: read-out: IC50
Homo sapiens = species on record: Homo sapiens; assay: Selectivity ratio, IC50 for human CYP11B1 to IC50 for human CYP11B2
[3] = target: T3, Cytochrome P450 11B2, mitochondrial
Cytochrome P450 2B6 = target: T5, Cytochrome P450 2B6 (Homo sapiens, UniProt P20813); assay: Inhibition of human recombinant CYP2B6 expressed in baculovirus-infected insect microsomes; format: ADME, Microsome
T5 sequence (P20813 whole entry): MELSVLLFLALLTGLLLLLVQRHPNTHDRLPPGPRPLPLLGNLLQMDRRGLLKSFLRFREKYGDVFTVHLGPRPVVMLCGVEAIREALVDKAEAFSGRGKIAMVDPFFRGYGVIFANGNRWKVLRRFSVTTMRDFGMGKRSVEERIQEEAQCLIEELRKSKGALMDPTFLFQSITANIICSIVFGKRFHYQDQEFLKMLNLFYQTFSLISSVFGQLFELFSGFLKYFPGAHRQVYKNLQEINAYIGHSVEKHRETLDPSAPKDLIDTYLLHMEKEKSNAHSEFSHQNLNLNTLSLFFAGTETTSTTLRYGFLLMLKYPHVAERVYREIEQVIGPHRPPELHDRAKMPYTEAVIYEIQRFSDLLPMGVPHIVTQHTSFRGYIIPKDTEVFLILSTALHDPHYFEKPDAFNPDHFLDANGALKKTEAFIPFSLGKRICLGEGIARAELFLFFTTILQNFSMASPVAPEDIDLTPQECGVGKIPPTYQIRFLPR

Cytochrome P450 2C19, sequence (P33261 whole entry): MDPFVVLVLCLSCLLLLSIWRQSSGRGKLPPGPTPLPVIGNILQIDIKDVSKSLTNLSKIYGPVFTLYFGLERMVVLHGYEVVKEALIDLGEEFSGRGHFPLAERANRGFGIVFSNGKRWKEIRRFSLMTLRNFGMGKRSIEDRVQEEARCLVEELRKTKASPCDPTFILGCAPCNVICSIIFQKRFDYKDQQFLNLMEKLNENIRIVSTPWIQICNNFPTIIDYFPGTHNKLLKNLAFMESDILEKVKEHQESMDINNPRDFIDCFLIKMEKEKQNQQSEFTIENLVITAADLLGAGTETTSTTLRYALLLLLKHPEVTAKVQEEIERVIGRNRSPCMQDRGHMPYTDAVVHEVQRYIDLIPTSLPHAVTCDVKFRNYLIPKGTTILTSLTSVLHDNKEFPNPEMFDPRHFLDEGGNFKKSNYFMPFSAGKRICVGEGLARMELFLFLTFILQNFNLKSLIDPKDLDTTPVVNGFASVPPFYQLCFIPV
Cytochrome P450 3A4, sequence (P08684 whole entry): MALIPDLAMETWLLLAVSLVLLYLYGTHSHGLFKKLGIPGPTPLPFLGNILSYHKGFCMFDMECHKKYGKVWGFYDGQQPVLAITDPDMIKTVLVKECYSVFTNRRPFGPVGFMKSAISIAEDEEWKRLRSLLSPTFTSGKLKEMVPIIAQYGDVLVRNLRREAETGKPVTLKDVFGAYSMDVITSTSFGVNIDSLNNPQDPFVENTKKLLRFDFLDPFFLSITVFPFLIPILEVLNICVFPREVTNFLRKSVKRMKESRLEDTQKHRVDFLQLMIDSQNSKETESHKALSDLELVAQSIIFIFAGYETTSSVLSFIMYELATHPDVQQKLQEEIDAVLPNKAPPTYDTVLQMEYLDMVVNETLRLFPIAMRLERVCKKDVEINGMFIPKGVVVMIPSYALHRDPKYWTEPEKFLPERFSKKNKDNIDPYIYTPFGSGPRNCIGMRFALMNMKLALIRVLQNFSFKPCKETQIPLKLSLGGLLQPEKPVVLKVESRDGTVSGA
Cytochrome P450 2D6, sequence (P10635 whole entry): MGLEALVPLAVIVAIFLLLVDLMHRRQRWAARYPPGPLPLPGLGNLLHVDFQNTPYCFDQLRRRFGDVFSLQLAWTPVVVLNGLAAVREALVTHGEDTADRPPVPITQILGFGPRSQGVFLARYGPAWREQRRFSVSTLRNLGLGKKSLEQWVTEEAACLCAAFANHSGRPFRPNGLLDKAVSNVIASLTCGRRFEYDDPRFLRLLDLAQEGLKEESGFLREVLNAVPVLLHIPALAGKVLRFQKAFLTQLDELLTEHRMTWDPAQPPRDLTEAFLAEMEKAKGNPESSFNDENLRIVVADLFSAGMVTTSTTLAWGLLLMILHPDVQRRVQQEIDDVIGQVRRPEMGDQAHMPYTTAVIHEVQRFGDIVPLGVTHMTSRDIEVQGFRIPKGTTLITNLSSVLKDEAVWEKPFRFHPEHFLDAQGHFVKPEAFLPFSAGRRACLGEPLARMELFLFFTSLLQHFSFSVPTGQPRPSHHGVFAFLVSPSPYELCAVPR

IC50 [1] [µM] | IC50 (Cytochrome P450 2D6; read-out: IC50) [µM] | inhibition at 2.5 µM (CYP17) [%] | inhibition at 0.5 µM [2] [%] | IC50 (Cytochrome P450 3A4) [µM] | IC50 (Cytochrome P450 1A2) [µM] | IC50 (Cytochrome P450 2C19) [µM] | Ratio IC50 (Homo sapiens) | IC50 [3] [µM] | IC50 (Cytochrome P450 2B6) [µM] | IC50 (Cytochrome P450 2D6) [µM] | SMILES
0.033 | < 50 | 22 | 94 | < 50 | > 150 | 9.2 | 187 | 0.0002 | < 100 | – | O=C1CCc2cc(-c3cncc4ccccc34)ccc2N1
3.96 | 171 | 20 | 97 | 6.21 | 1.55 | 41.5 | 496 | 0.0078 | < 50 | – | O=C1CCc2cc(-c3cccnc3)ccc2C1
0.191 | – | 21 | 94 | 3.8 | 1.56 | 45.4 | 106 | 0.0018 | < 50 | < 200 | COc1cncc(-c2ccc3c(c2)CCC(=O)C3)c1
